Test results from patent US9670227B2, “Thienopyrimidine derivatives, a process for their preparation and pharmaceutical compositions containing them” (LES LABORATOIRES SERVIER, priority 2013, dated 2017).
Read-outs that look alike come from different tables or passages of the source.

Assays:
[1] = system: H929 multiple myeloma tumour line; test: In vitro cytotoxicity, Microculture Tetrazolium Assay; format: cell-based; conditions: H929 cells, 48 hours exposure, MTT, read-out: IC50 (μM) MTT H929
Description: The cytotoxicity studies were carried out on the H929 multiple myeloma tumour line.
The cells are distributed onto microplates and exposed to the test compounds for 48 hours.

Mcl-1 protein = Mcl-1 protein (UniProtKB primary accession number: Q07820) (Homo sapiens, UniProt Q07820); test: Inhibition of Mcl-1 by fluorescence polarisation, Method 1; format: binding; conditions: fluorescence polarisation test; Method 2 values are underlined in the patent (underlining not visible here); read-out: IC50 (M) Mcl-1 FP
Sequence of Mcl-1 protein (Q07820 whole entry): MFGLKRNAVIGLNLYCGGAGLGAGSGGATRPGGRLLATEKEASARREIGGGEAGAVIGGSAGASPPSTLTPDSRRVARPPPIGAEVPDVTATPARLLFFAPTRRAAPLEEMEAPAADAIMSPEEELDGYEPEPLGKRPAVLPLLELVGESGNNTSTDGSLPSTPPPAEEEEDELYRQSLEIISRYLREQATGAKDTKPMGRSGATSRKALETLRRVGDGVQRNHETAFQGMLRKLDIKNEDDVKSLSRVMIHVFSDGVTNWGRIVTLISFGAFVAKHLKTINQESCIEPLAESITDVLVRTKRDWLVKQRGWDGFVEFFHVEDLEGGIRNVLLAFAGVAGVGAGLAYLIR
In short: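 Compounds were tested as 11-point serial dilutions at 5% final DMSO against 5 nM Mcl-1 with 1 nM fluorescein-labelled ligand in 10 mM HEPES, 150 mM NaCl, 0.05% Tween 20, pH 7.4. Relative binding potency was read by fluorescence polarisation.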

SMILES	IC50 ([1]; Homo sapiens, NCI-H929, 48 h) [µM]	IC50 (Mcl-1 protein) [M]	IC50 [1] [µM]
Cc1c(-c2c(-c3ccco3)sc3ncnc(OC(Cc4ccccc4OC(F)F)C(=O)O)c23)ccc(OCCN2CCN(C)CC2)c1Cl [Example 338, (2R)-2-{[(5Sa)-5-{3-chloro-2-methyl-4-[2-(4-methylpiperazin-1-yl)ethoxy]phenyl}-6-(furan-2-yl)thieno[2,3-d]pyrimidin-4-yl]oxy}-3-[2-(difluoromethoxy)phenyl]propanoic acid]	1.04	3e-08	
Cc1c(-c2c(-c3ccco3)sc3ncnc(OC(Cc4ccccc4F)C(=O)O)c23)ccc(OCCN2CCN(C)CC2)c1Cl [Example 341, (2S)-2-{[(5Ra)-5-{3-chloro-2-methyl-4-[2-(4-methylpiperazin-1-yl)ethoxy]phenyl}-6-(furan-2-yl)thieno[2,3-d]pyrimidin-4-yl]oxy}-3-(2-fluorophenyl)propanoic acid]		3.5e-08	0.706
COc1ccc(C)cc1CC(Oc1ncnc2sc(-c3ccco3)c(-c3ccc(OCCN4CCN(C)CC4)c(Cl)c3C)c12)C(=O)O [Example 344, (2R)-2-{[(5Sa)-5-{3-chloro-2-methyl-4-[2-(4-methylpiperazin-1-yl)ethoxy]phenyl}-6-(furan-2-yl)thieno[2,3-d]pyrimidin-4-yl]oxy}-3-(2-methoxy-5-methylphenyl)propanoic acid]	0.22	1.6e-08	
COc1ccc(F)cc1CC(Oc1ncnc2sc(-c3ccco3)c(-c3ccc(OCCN4CCN(C)CC4)c(Cl)c3C)c12)C(=O)O [Example 345, (2R)-2-{[(5Sa)-5-{3-chloro-2-methyl-4-[2-(4-methylpiperazin-1-yl)ethoxy]phenyl}-6-(furan-2-yl)thieno[2,3-d]pyrimidin-4-yl]oxy}-3-(5-fluoro-2-methoxyphenyl)propanoic acid]	0.322	8.6e-09	
COc1cc(F)ccc1CC(Oc1ncnc2sc(-c3ccco3)c(-c3ccc(OCCN4CCN(C)CC4)c(Cl)c3C)c12)C(=O)O [Example 346, (2R)-2-{[(5Sa)-5-{3-chloro-2-methyl-4-[2-(4-methylpiperazin-1-yl)ethoxy]phenyl}-6-(furan-2-yl)thieno[2,3-d]pyrimidin-4-yl]oxy}-3-(4-fluoro-2-methoxyphenyl)propanoic acid]	0.063	1.7e-08	
Cc1cccc(C[C@@H](Oc2ncnc3sc(-c4ccco4)c(-c4ccc(OCCN5CCN(C)CC5)c(Cl)c4C)c23)C(=O)O)c1 [Example 347, (2R)-2-{[(5Sa)-5-{3-chloro-2-methyl-4-[2-(4-methylpiperazin-1-yl)ethoxy]phenyl}-6-(furan-2-yl)thieno[2,3-d]pyrimidin-4-yl]oxy}-3-(3-methylphenyl)propanoic acid]		1.4e-08	0.25
Cc1c(-c2c(-c3ccco3)sc3ncnc(OC(Cc4cccc(F)c4)C(=O)O)c23)ccc(OCCN2CCN(C)CC2)c1Cl [Example 348, (2R)-2-{[(5Sa)-5-{3-chloro-2-methyl-4-[2-(4-methylpiperazin-1-yl)ethoxy]phenyl}-6-(furan-2-yl)thieno[2,3-d]pyrimidin-4-yl]oxy}-3-(3-fluorophenyl)propanoic acid]	0.346	2.1e-08	
COc1cccc(CC(Oc2ncnc3sc(-c4ccco4)c(-c4ccc(OCCN5CCN(C)CC5)c(Cl)c4C)c23)C(=O)O)c1 [Example 349, (2R)-2-{[(5Sa)-5-{3-chloro-2-methyl-4-[2-(4-methylpiperazin-1-yl)ethoxy]phenyl}-6-(furan-2-yl)thieno[2,3-d]pyrimidin-4-yl]oxy}-3-(3-methoxyphenyl)propanoic acid]	2.46	2.7e-08	
COc1c(C)cccc1CC(Oc1ncnc2sc(-c3ccco3)c(-c3ccc(OCCN4CCN(C)CC4)c(Cl)c3C)c12)C(=O)O [Example 351, (2R)-2-{[(5Sa)-5-{3-chloro-2-methyl-4-[2-(4-methylpiperazin-1-yl)ethoxy]phenyl}-6-(furan-2-yl)thieno[2,3-d]pyrimidin-4-yl]oxy}-3-(2-methoxy-3-methylphenyl)propanoic acid]	0.526	1.5e-08	
COc1c(F)cccc1CC(Oc1ncnc2sc(-c3ccco3)c(-c3ccc(OCCN4CCN(C)CC4)c(Cl)c3C)c12)C(=O)O [Example 352, (2R)-2-{[(5Sa)-5-{3-chloro-2-methyl-4-[2-(4-methylpiperazin-1-yl)ethoxy]phenyl}-6-(furan-2-yl)thieno[2,3-d]pyrimidin-4-yl]oxy}-3-(3-fluoro-2-methoxyphenyl)propanoic acid]	0.91	1.4e-08	
Cc1ccccc1CC(Oc1ncnc2sc(-c3ccco3)c(-c3ccc(OCCN4CCN(C)CC4)c(Cl)c3C)c12)C(=O)O [Example 354, (2R)-2-{[(5Sa)-5-{3-chloro-2-methyl-4-[2-(4-methylpiperazin-1-yl)ethoxy]phenyl}-6-(furan-2-yl)thieno[2,3-d]pyrimidin-4-yl]oxy}-3-(2-methylphenyl)propanoic acid]	0.544	1.1e-08	
Cc1c(-c2c(-c3ccco3)sc3ncnc(OC(Cc4ccccc4F)C(=O)O)c23)ccc(OCCN2CCN(C)CC2)c1Cl [Example 357, (2R)-2-{[(5Sa)-5-{3-chloro-2-methyl-4-[2-(4-methylpiperazin-1-yl)ethoxy]phenyl}-6-(furan-2-yl)thieno[2,3-d]pyrimidin-4-yl]oxy}-3-(2-fluorophenyl)propanoic acid]		5.5e-07	3.39
Cc1c(-c2c(-c3ccco3)sc3ncnc(OC(Cc4ccccc4NC(=O)OC(C)(C)C)C(=O)O)c23)ccc(OCCN2CCN(C)CC2)c1Cl [Example 358, (2R)-3-{2-[(tert-butoxycarbonyl)amino]phenyl}-2-{[(5Sa)-5-{3-chloro-2-methyl-4-[2-(4-methylpiperazin-1-yl)ethoxy]phenyl}-6-(furan-2-yl)thieno[2,3-d]pyrimidin-4-yl]oxy}propanoic acid]	1.61	9.5e-09	
Cc1c(-c2c(-c3ccco3)sc3ncnc(OC(Cc4ccccc4SCC(F)(F)F)C(=O)O)c23)ccc(OCCN2CCN(C)CC2)c1Cl [Example 362, (2R)-2-{[(5Sa)-5-{3-chloro-2-methyl-4-[2-(4-methylpiperazin-1-yl)ethoxy]phenyl}-6-(furan-2-yl)thieno[2,3-d]pyrimidin-4-yl]oxy}-3-{2-[(2,2,2-trifluoroethyl)sulfanyl]phenyl}propanoic acid]	1	2.6e-08	
Cc1c(-c2c(-c3ccc(Cl)o3)sc3ncnc(OC(Cc4ccccc4OCC4CCCO4)C(=O)O)c23)ccc(OCCN2CCN(C)CC2)c1Cl [Example 364, (2R)-2-{[6-(5-chlorofuran-2-yl)-(5Sa)-5-{3-chloro-2-methyl-4-[2-(4-methylpiperazin-1-yl)ethoxy]phenyl}thieno[2,3-d]pyrimidin-4-yl]oxy}-3-{2-[(2R)-tetrahydrofuran-2-ylmethoxy]phenyl}propanoic acid]	0.052	5.1e-09	
Cc1c(-c2c(-c3ccc(Cl)o3)sc3ncnc(OC(Cc4ccccc4OCC(F)(F)F)C(=O)O)c23)ccc(OCCN2CCN(C)CC2)c1Cl [Example 365, (2R)-2-{[6-(5-chlorofuran-2-yl)-(5Sa)-5-{3-chloro-2-methyl-4-[2-(4-methylpiperazin-1-yl)ethoxy]phenyl}thieno[2,3-d]pyrimidin-4-yl]oxy}-3-[2-(2,2,2-trifluoroethoxy)phenyl]propanoic acid]	0.026	5.9e-09	
Cc1c(-c2c(-c3ccc(Cl)o3)sc3ncnc(OC(Cc4ccccc4OCc4ccccn4)C(=O)O)c23)ccc(OCCN2CCN(C)CC2)c1Cl [Example 366, (2R)-2-{[6-(5-chlorofuran-2-yl)-(5Sa)-5-{3-chloro-2-methyl-4-[2-(4-methylpiperazin-1-yl)ethoxy]phenyl}thieno[2,3-d]pyrimidin-4-yl]oxy}-3-[2-(pyridin-2-ylmethoxy)phenyl]propanoic acid]	0.346	8.6e-09	
Cc1c(-c2c(-c3ccc(Cl)o3)sc3ncnc(OC(Cc4ccccc4OCc4ccnc(C(F)(F)F)n4)C(=O)O)c23)ccc(OCCN2CCN(C)CC2)c1Cl [Example 367, (2R)-2-{[6-(5-chlorofuran-2-yl)-(5Sa)-5-{3-chloro-2-methyl-4-[2-(4-methylpiperazin-1-yl)ethoxy]phenyl}thieno[2,3-d]pyrimidin-4-yl]oxy}-3-(2-{[2-(trifluoromethyl)pyrimidin-4-yl]methoxy}phenyl)propanoic acid]	0.015	3.2e-09	
Cc1c(-c2c(-c3ccc(Cl)o3)sc3ncnc(OC(Cc4ccccc4OCc4ccnc(N5CCOCC5)n4)C(=O)O)c23)ccc(OCCN2CCN(C)CC2)c1Cl [Example 368, (2R)-2-{[6-(5-chlorofuran-2-yl)-(5Sa)-5-{3-chloro-2-methyl-4-[2-(4-methylpiperazin-1-yl)ethoxy]phenyl}thieno[2,3-d]pyrimidin-4-yl]oxy}-3-(2-{[2-(morpholin-4-yl)pyrimidin-4-yl]methoxy}phenyl)propanoic acid]	0.005	1.4e-08	
COc1nccc(COc2ccccc2CC(Oc2ncnc3sc(-c4ccc(Cl)o4)c(-c4ccc(OCCN5CCN(C)CC5)c(Cl)c4C)c23)C(=O)O)n1 [Example 369, (2R)-2-{[6-(5-chlorofuran-2-yl)-(5Sa)-5-{3-chloro-2-methyl-4-[2-(4-methylpiperazin-1-yl)ethoxy]phenyl}thieno[2,3-d]pyrimidin-4-yl]oxy}-3-{2-[(2-methoxypyrimidin-4-yl)methoxy]phenyl}propanoic acid]	0.009	5.1e-09	
